Measured values taken from patent publication US20220125051A1, “PRE-HARVEST DESICCATION METHOD” (SYNGENTA CROP PROTECTION AG, priority 2019, published 2022).

Columns and labels:
Assay type in all cases: in vivo
[1] = test system: Digitaria sanguinalis (DIGSA); test: Post-emergence efficacy, Method B; conditions: read-out: Control of weed species after post-emergence application, DIGSA
Description: (§1) An “instant formulation”, known as the IF50, containing 50 g/L of the “technical” (i.e. unformulated) active ingredient was prepared by dissolving the active ingredient in a mixture of organic solvents and emulsifier, details of which are provided in the table. This IF50 was then mixed with a small, variable amount of acetone to aid dissolution, before addition of an aqueous solution of 1% v/v ammonium sulphate+1% v/v Empicol ESC70 (Sodium lauryl ether sulphate) adjuvant, as the aqueous diluent, to form an aqueous spray solution which contains a predetermined concentration of the active ingredient (which varies depending on the application rate of the active ingredient to the plants).
(§2) This aqueous spray solution was then sprayed onto the plants, after about 12 days' cultivation. The plants were grown from seeds sown in standard soil, placed in a glasshouse under controlled conditions (at 24/18° C. or 20/16° C., day/night; 16 hours light; 65% humidity). After spray application the plants were then grown on in a glasshouse under the same conditions and watered twice daily. […] the test was evaluated (100=total damage to plant; 0=no damage to plant).
(§3) Ipomoea hederacea (IPOHE), Euphorbia heterophylla (EPHHL), Chenopodium album (CHEAL), Amaranthus retroflexus (AMARE), Lolium perenne (LOLPE), Digitaria sanguinalis (DIGSA), Eleusine indica (ELEIN), Echinochloa crus-galli (ECHCG), Setaria faberi (SETFA)

[2] = test system: Amaranthus retroflexus (AMARE); test: Post-emergence efficacy, Method B; conditions: read-out: Control of weed species after post-emergence application, AMARE
Description: as §1, §2, §3

Setaria faberi (SETFA) = test: Post-emergence efficacy, Method B; conditions: read-out: Control of weed species after post-emergence application, SETFA
Description: as §1, §2, §3

Eleusine indica (ELEIN) = test: Post-emergence efficacy, Method B; conditions: read-out: Control of weed species after post-emergence application, ELEIN
Description: as §1, §2, §3

[3] = test system: Echinochloa crus-galli (ECHCG); test: Post-emergence efficacy, Method B; conditions: read-out: Control of weed species after post-emergence application, ECHCG
Description: as §1, §2, §3

Lolium perenne (LOLPE) = test: Post-emergence efficacy, Method B; conditions: read-out: Control of weed species after post-emergence application, LOLPE
Description: as §1, §2, §3

[4] = test system: Ipomoea hederacea (IPOHE); test: Post-emergence efficacy, Method B; conditions: read-out: Control of weed species after post-emergence application, IPOHE
Description: as §1, §2, §3

[5] = test system: Chenopodium album (CHEAL); test: Post-emergence efficacy, Method B; conditions: read-out: Control of weed species after post-emergence application, CHEAL
Description: as §1, §2, §3

[6] = test system: Euphorbia heterophylla (EPHHL); test: Post-emergence efficacy, Method B; conditions: read-out: Control of weed species after post-emergence application, EPHHL
Description: as §1, §2, §3

Glycine Max (GLXMA) = test: Pre-harvest desiccation of crop plants; conditions: Table E, evaluated after 7 and 14 days (which not stated), 100=total damage to plant, 0=no damage
Description: (§4) Seeds of a variety of test species were sown in standard loam based soil in pots. After cultivation from between 21 and 28 days (post-emergence) under controlled conditions in a glasshouse (at 24/16° C., day/night; 14 hours light; 65% humidity) for warm climate species and (at 20/16° C. day/night; 15 hours light; 65% humidity) for cool climate species.
(§5) The plants were sprayed with an aqueous spray solution derived from dissolving the technical active ingredient formula in a small amount of acetone and a special solvent and emulsifier mixture referred to as IF50 (11.12% Emulsogen EL360 TM+44.44% N-methylpyrrolidone+44.44% Dowanol DPM glycol ether), to create a 50 g/I solution which was then diluted to required concentration using a solution of 1% Empicol ESC70 (Sodium lauryl ether sulphate)+1% ammonium sulphate in water as diluent.
(§6) The delivery of the aqueous spray solution was via a laboratory track sprayer which delivered the aqueous spray composition at a rate of 200 litres per hectare, using a flat fan nozzle (Teejet 11002VS) and an application volume of 200 litre/ha (at 2 bar).
(§7) The test plants were then grown in a glasshouse under controlled conditions (at 24/16° C., day/night; 14 hours light; 65% humidity) for warm climate species and (at 20/16° C. day/night; 15 hours light; 65% humidity) for cool climate species and watered twice daily. After 7 and 14 days the test was evaluated (100=total damage to plant; 0=no damage to plant).
(§8) A value of n/t indicates not tested.
(§9) Glycine Max (GLXMA), Solanum turberosum (SOLTU), Gossypium hirsutum (GOSHI), Brassica napus (BRSNN), Helianthus annus (HELAN)

[7] = test system: Solanum turberosum (SOLTU); test: Pre-harvest desiccation of crop plants; conditions: Table E, evaluated after 7 and 14 days (which not stated), 100=total damage to plant, 0=no damage
Description: as §4, §5, §6, §7, §8, §9

[8] = test system: Gossypium hirsutum (GOSHI); test: Pre-harvest desiccation of crop plants; conditions: Table E, evaluated after 7 and 14 days (which not stated), 100=total damage to plant, 0=no damage
Description: as §4, §5, §6, §7, §8, §9

Brassica napus (BRSNN) = test: Pre-harvest desiccation of crop plants; conditions: Table E, evaluated after 7 and 14 days (which not stated), 100=total damage to plant, 0=no damage
Description: as §4, §5, §6, §7, §8, §9

In the case of `N[C@@H](CCC[n+]1ccc(-c2ncccn2)cn1)C(=O)O` [Compound A211, [(1S)-1-carboxy-4-(4-pyrimidin-2-ylpyridazin-1-ium-1-yl)butyl]ammonium dichloride], the pest or weed control at 500 g/ha [1] is reported as 100%, the pest or weed control at 500 g/ha [2] is reported as 100% and the pest or weed control at 500 g/ha (Setaria faberi (SETFA)) is reported as 100%. For the same compound, the pest or weed control at 500 g/ha (Eleusine indica (ELEIN)) was 100%, the pest or weed control at 500 g/ha [3] was 100% and the pest or weed control at 500 g/ha (Lolium perenne (LOLPE)) was 10%. For the same compound, the pest or weed control at 500 g/ha [4] was 100%, the pest or weed control at 500 g/ha [5] was 90% and the pest or weed control at 500 g/ha [6] was 80%.
For `O=S(=O)([O-])CC[n+]1ccc(-c2ncccn2)cn1` [Compound A1, 2-(4-pyrimidin-2-ylpyridazin-1-ium-1-yl)ethanesulfonate], the “Post-emergence dessication efficacy, GLXMA” value (Glycine Max (GLXMA); 150 g/Ha) was 68, the “Post-emergence dessication efficacy, GLXMA” value (Glycine Max (GLXMA); 300 g/Ha) was 94 and the “Post-emergence dessication efficacy, GLXMA” value (Glycine Max (GLXMA); 600 g/Ha) was 98. The “Post-emergence dessication efficacy, SOLTU” value ([7]; 150 g/Ha) was 38, the “Post-emergence dessication efficacy, SOLTU” value ([7]; 300 g/Ha) was 90 and the “Post-emergence dessication efficacy, SOLTU” value ([7]; 600 g/Ha) was 60. For the same compound, the “Post-emergence dessication efficacy, GOSHI” value ([8]; 150 g/Ha) was 99, the “Post-emergence dessication efficacy, GOSHI” value ([8]; 300 g/Ha) was 98 and the “Post-emergence dessication efficacy, GOSHI” value ([8]; 600 g/Ha) was 96. The “Post-emergence dessication efficacy, BRSNN” value (Brassica napus (BRSNN); 150 g/Ha) was 33, the “Post-emergence dessication efficacy, BRSNN” value (Brassica napus (BRSNN); 300 g/Ha) was 55 and the “Post-emergence dessication efficacy, BRSNN” value (Brassica napus (BRSNN); 600 g/Ha) was 70.
`Nc1ccnc(-c2cc[n+](CCC(=O)O)nc2)n1` [Compound A41] gave a pest or weed control at 1000 g/ha [1] of 100%, a pest or weed control at 1000 g/ha [2] of 100% and a pest or weed control at 1000 g/ha (Setaria faberi (SETFA)) of 100%. It also gave a pest or weed control at 1000 g/ha (Eleusine indica (ELEIN)) of 50%, a pest or weed control at 1000 g/ha [3] of 100% and a pest or weed control at 1000 g/ha (Lolium perenne (LOLPE)) of 60%. It also gave a pest or weed control at 1000 g/ha [4] of 20%, a pest or weed control at 1000 g/ha [5] of 90% and a pest or weed control at 1000 g/ha [6] of 100%.
Work on `O=S(=O)([O-])CC[n+]1ccc(-c2cccnn2)cn1` [Compound A213, 2-(4-pyridazin-1-ium-3-ylpyridazin-1-ium-1-yl)ethanesulfonate chloride] yielded a pest or weed control at 1000 g/ha [1] of 100%, a pest or weed control at 1000 g/ha [2] of 100% and a pest or weed control at 1000 g/ha (Setaria faberi (SETFA)) of 100%. The pest or weed control at 1000 g/ha (Eleusine indica (ELEIN)) was 100%, the pest or weed control at 1000 g/ha [3] was 100% and the pest or weed control at 1000 g/ha (Lolium perenne (LOLPE)) was 90%. It also gave a pest or weed control at 1000 g/ha [4] of 80%, a pest or weed control at 1000 g/ha [5] of 80% and a pest or weed control at 1000 g/ha [6] of 100%.
